Earlier results, collected in paper PMC9851200, “Multiparameter phenotypic screening for endogenous TFEB and TFE3 translocation identifies novel chemical series modulating lysosome function” (Autophagy, 2022).

How the values were obtained:
Parameters in all cases: method as in original PKIS2 published data
[1] = molecular target: T1, kinases (KINOMEscan panel) (Homo sapiens, UniProt P41743); settings: PRKCI; Published KINOMEscan; ref original PKIS2 published data; cited from earlier work
T1 sequence (P41743 1-596): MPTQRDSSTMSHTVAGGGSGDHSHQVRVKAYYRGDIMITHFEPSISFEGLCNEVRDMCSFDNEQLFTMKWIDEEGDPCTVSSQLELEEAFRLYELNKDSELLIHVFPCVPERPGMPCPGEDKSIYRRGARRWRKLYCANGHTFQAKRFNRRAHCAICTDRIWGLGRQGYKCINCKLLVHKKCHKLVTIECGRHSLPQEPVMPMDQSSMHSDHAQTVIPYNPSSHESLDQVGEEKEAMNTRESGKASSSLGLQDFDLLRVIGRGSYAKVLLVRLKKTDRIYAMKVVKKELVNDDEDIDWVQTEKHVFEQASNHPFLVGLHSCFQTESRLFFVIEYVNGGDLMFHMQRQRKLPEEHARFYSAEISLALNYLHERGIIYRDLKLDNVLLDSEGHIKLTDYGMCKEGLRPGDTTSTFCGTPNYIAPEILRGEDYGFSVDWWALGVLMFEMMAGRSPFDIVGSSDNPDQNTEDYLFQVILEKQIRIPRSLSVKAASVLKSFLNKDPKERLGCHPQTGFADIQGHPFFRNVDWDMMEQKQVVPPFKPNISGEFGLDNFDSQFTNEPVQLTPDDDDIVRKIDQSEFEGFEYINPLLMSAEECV

[2] = molecular target: T2, kinases (KINOMEscan panel) (Homo sapiens, UniProt Q9Y2U5); settings: MAP3K2; Published KINOMEscan; ref original PKIS2 published data; cited from earlier work
T2 sequence (Q9Y2U5 1-619): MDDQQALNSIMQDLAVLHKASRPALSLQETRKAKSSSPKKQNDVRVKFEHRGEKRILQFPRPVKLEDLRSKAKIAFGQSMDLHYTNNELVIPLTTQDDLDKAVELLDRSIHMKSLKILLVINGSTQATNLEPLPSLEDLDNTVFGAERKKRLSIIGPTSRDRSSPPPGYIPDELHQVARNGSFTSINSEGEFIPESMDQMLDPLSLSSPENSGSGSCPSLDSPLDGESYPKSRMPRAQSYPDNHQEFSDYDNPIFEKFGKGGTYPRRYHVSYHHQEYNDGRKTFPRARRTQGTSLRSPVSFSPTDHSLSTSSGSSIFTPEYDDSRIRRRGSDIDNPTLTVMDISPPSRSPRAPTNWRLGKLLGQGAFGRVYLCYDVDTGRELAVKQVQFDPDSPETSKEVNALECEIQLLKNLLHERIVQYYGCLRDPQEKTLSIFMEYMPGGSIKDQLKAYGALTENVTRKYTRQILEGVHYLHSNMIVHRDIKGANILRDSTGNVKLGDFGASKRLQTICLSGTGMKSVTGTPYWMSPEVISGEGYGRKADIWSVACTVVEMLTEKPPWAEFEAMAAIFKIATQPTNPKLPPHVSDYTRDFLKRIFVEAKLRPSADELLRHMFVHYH

[3] = molecular target: kinases (KINOMEscan panel) (Homo sapiens, UniProt Q8IVW4); settings: kinase CDKL3; Published KINOMEscan; ref original PKIS2 published data; cited from earlier work
Sequence of kinases (KINOMEscan panel) (Homo sapiens, UniProt Q8IVW4) (Q8IVW4 whole entry): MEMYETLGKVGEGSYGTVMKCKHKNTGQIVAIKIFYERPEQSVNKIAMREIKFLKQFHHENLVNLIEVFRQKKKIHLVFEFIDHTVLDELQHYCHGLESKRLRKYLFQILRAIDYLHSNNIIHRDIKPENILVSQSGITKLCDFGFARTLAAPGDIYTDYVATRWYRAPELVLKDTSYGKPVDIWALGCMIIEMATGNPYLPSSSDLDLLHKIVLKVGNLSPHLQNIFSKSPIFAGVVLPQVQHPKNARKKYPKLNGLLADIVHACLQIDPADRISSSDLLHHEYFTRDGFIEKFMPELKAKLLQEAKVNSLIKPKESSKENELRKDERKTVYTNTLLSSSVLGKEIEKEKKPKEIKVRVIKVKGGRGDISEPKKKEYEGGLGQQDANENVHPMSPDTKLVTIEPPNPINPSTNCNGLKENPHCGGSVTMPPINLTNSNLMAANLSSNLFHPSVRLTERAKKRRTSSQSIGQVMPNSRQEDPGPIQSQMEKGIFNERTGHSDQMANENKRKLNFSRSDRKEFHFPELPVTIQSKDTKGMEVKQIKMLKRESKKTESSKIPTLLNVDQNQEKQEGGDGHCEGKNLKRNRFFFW

[4] = molecular target: kinases (KINOMEscan panel) (Homo sapiens, UniProt Q9H0K1); settings: kinase SIK2; Published KINOMEscan; ref original PKIS2 published data; cited from earlier work
Sequence of kinases (KINOMEscan panel) (Homo sapiens, UniProt Q9H0K1) (Q9H0K1 whole entry): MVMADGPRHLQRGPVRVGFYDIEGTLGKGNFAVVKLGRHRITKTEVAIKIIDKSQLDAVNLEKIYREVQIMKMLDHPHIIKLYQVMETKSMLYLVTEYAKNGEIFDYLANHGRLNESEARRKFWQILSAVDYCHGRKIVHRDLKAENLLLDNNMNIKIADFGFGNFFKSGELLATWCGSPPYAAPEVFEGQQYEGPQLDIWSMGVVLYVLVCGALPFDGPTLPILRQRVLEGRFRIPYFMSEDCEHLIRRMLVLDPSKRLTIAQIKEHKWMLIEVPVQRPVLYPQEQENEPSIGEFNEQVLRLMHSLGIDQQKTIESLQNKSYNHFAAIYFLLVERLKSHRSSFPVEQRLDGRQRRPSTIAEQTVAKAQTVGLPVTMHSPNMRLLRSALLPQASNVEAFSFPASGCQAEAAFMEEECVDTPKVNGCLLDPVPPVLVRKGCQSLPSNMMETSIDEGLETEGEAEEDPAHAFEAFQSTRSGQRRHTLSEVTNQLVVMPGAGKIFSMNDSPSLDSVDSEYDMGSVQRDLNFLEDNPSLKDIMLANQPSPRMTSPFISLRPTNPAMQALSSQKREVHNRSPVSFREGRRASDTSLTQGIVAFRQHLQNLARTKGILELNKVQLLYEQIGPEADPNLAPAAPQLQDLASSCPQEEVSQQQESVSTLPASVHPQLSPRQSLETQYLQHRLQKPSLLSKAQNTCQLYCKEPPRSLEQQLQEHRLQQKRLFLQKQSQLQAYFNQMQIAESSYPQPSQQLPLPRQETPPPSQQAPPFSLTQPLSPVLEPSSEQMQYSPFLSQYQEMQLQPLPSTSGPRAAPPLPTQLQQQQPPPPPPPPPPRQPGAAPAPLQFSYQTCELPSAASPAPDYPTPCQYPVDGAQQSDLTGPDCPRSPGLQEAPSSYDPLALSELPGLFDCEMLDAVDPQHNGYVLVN

[5] = molecular target: T3, kinases (KINOMEscan panel) (Homo sapiens, UniProt Q12851); settings: kinase MAP4K2; Published KINOMEscan; ref original PKIS2 published data; cited from earlier work
T3 sequence (Q12851 1-820): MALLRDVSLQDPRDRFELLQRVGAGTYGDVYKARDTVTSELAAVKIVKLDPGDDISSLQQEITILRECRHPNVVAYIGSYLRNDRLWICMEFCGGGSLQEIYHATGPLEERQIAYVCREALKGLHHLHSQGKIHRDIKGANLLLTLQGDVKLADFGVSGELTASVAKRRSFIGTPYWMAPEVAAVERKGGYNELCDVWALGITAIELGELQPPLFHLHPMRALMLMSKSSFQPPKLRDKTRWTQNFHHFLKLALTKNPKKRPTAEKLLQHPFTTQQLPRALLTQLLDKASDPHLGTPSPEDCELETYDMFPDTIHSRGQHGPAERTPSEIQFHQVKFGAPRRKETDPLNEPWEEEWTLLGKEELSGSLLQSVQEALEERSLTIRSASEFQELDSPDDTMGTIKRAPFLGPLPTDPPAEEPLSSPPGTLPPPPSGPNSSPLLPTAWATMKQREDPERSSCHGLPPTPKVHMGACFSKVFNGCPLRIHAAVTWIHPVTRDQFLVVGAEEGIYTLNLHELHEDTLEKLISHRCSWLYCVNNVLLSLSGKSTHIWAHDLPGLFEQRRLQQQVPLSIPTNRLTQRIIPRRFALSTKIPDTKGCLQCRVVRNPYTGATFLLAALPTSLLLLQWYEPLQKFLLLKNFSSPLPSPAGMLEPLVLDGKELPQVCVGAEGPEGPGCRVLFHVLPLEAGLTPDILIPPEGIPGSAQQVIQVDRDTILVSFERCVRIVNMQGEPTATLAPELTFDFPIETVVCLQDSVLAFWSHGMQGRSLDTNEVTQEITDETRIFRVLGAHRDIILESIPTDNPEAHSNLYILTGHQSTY

For `Cc1cccc(-c2nc(Nc3ccncc3)c3ccccc3n2)n1` [NK215], the “KINOMEscan PRKCI” value [1] is given as 32, the “KINOMEscan MAP3K2” value [2] is given as 0 and the “KINOMEscan CDKL3” value [3] is given as 0. The “KINOMEscan SIK2” value [4] was 0 and the “KINOMEscan MAP4K2” value [5] was 0.
